Reference: US11905231B1, “Solid forms, salts and polymorphs of anti-fibrotic compounds” (Certa Therapeutics Pty Ltd, priority 2023, dated 2024)
Converted amounts (≈) assume the structure as drawn. Where two headings read alike, the source gives them in different places.

Tests used:
[1] = physchem; conditions: 37 °C, thermodynamic from solid
Experimental: The term “FaSSIF media” refers to Fasted State Simulated Intestinal Fluid media prepared using FaSSIF powder and buffer concentrate obtained from the commercial source Biorelevant (London, UK, biorelevant.com). The FaSSIF powder contains sodium taurocholate, lecithin, sodium chloride, monobasic sodium phosphate and sodium hydroxide. The FaSSIF media is prepared as described at https://biorelevant.com/learning_center/what-is-fassif/. Briefly the pH6.5 buffer containing 0.42 g of NaOH, 3.95 g of NaH2PO4·H2O and 6.19 g of NaCl was dissolved in 0.9 L of purified water and the pH of the solution was adjusted to 6.5 using sodium hydroxide 1N or hydrochloric acid 1N and made up to volume (1 L) with purified water at room temperature. Dissolve 2.24 g of the FaSSIF powder in 0.5 L of the pH6.5 buffer, stirring until the powder is completely dissolved, and then make up to volume (1 L) with buffer at room temperature.
The samples were stirred using a magnetic stirrer at 37° C. […] The samples were filtered via centrifugation (12,000 rpm, 5 min). The supernatant was diluted (2×) with HPLC grade solvent and analyzed by HPLC.
HPLC gradient was as follows:
The pH 1.2, pH 4.5, and pH 6.8 media were prepared as standard aqueous buffered solutions following USP <39>.
As used herein, the term “FaSSIF media” means Fasted Stated Simulated Intestinal Fluid media prepared according to the method known in the art.

[2] = in vivo; conditions: rat; for F (fraction absorbed, bioavailability): based on AUCInf
Experimental: Bioavailability is determined by the equation AUC=F·D/CLT, wherein AUC is the area under the plot of plasma concentration, F is the absolute bioavailability, D is the dose, and CLT is the total clearance.
The rats received a single oral dose of 20 mg/kg body weight (b.w.). The doses were prepared as a 2.0 mg/mL suspension in a vehicle of 20 mM Na2HPO4 buffer containing 5% (v/v) DMSO, 0.4% (v/v) 1M NaOH and 0.4% (v/v) Tween 80 and a dose volume of 10 mL/kg b.w.
Pharmacokinetic analysis was performed on the average plasma concentration for each time point.

[3] = Thermogravimetric Analysis (TGA) weight loss; type: physicochemical; conditions: for Total weight loss by TGA: from r.t. to 350° C. (or to decomposition if lower); for Weight loss (TGA): when heated from about 25° C. to about 120° C.
[4] = Dynamic Vapor Sorption (DVS) hygroscopicity; conditions: at 80% RH, 25° C., measured during 0% RH to 95% RH increase
Description: The change in water content is recited as a % change in mass of the starting sample and all such water sorption (DVS) values recited herein will be understood to explicitly include numerical values within a +/−0.2% variance.
The humidity is held constant at 30% RH until the mass change of the sample reaches equilibrium, as determined by the rate of change of weight being 0.01%/minute or less. The humidity is then changed to the next step value and the consequent mass change measured, and so on.
The hygroscopicity values recited herein refer to total water gain since the start of the experiment only and so may not necessarily be equivalent to the actual total water content of the sample.

[5] = FaSSIF (pH 7.5), pH 7.5, fassif
[6] = FeSSIF (pH 7.8), pH 7.8, fessif
[7] = pH 1.2 aqueous buffer, pH 1.2, simulated gastric fluid
[8] = Sprague-Dawley, in vivo, po, 20 mg/kg
[9] = single oral dose 20 mg/kg, 0.5 h post dose
[10] = single oral dose 20 mg/kg, 1 h post dose
[11] = single oral dose 20 mg/kg, 2 h post dose
[12] = single oral dose 20 mg/kg, 4 h post dose
[13] = single oral dose 20 mg/kg, 8 h post dose
[14] = single oral dose 20 mg/kg, 24 h post dose
[15] = single oral dose 20 mg/kg, plasma
[16] = single oral dose 20 mg/kg, plasma, mean
[17] = single oral dose 20 mg/kg, plasma, extrapolated area under the curve

In the case of `C#CCOc1ccc(/C=C/C(=O)Nc2ccccc2C(=O)O)cc1OC` [Free form], the solubility at 1 h [1, 5] is reported as 1340 µg/mL (≈ 3810 µM), the solubility at 24 h [1, 5] is reported as 1500 µg/mL (≈ 4270 µM) and the solubility at 1 h ([1]; FaSSIF, pH 6.5, fassif) is reported as 312 µg/mL (≈ 888 µM). It also gave a solubility at 24 h ([1]; FaSSIF, pH 6.5, fassif) of 103 µg/mL (≈ 293 µM), a solubility at 1 h [1, 6] of 806 µg/mL (≈ 2290 µM) and a solubility at 24 h [1, 6] of 400 µg/mL (≈ 1140 µM). It also gave a solubility at 1 h ([1]; FeSSIF, pH 5, fessif) of 39 µg/mL (≈ 111 µM), a solubility at 24 h ([1]; FeSSIF, pH 5, fessif) of 18 µg/mL (≈ 51.2 µM) and a solubility at 1 h [1, 7] of 10 µg/mL (≈ 28.5 µM). The solubility at 24 h [1, 7] was 4 µg/mL (≈ 11.4 µM), the solubility at 1 h ([1]; pH 4.5 aqueous buffer) was 35 µg/mL (≈ 99.6 µM) and the solubility at 24 h ([1]; pH 4.5 aqueous buffer) was 6 µg/mL (≈ 17.1 µM). It also gave a solubility at 1 h ([1]; pH 6.8 aqueous buffer) of 394 µg/mL (≈ 1120 µM), a solubility at 24 h ([1]; pH 6.8 aqueous buffer) of 51 µg/mL (≈ 145 µM) and an AUCExtr [2, 8] of 2.10%. The AUCInf [2, 8] was 170.145 µg·h/mL, the AUClast [2, 8] was 166.522 µg·h/mL and the bioavailability [2, 8] was 35%. For the same compound, the half-life [2, 8] was 4.23 h, the tmax [2, 8] was 3.67 h and the “Mean concentration (plasma)” value ([2]; Sprague-Dawley, in vivo, po, 20 mg/kg, 0.5 h) was 9947 ng/mL. For the same compound, the “Mean concentration (plasma)” value ([2]; Sprague-Dawley, in vivo, po, 20 mg/kg, 1 h) was 16427 ng/mL, the “Mean concentration (plasma)” value ([2]; Sprague-Dawley, in vivo, po, 20 mg/kg, 2 h) was 13217 ng/mL and the “Mean concentration (plasma)” value ([2]; Sprague-Dawley, in vivo, po, 20 mg/kg, 4 h) was 11693 ng/mL. For the same compound, the “Mean concentration (plasma)” value ([2]; Sprague-Dawley, in vivo, po, 20 mg/kg, 8 h) was 8990 ng/mL, the “Mean concentration (plasma)” value ([2]; Sprague-Dawley, in vivo, po, 20 mg/kg, 24 h) was 586 ng/mL and the “Weight loss by TGA” value ([3]; from r.t. to 120° C.) was 1.83% from r.t. to. For the same compound, the “Total weight loss by TGA” value [3] was 1.83% total weight.
With `C#CCOc1ccc(/C=C/C(=O)Nc2ccccc2C(=O)[O-])cc1OC.[K+]` [Potassium salt] the “1 h Solubility” value (FaSSIF (pH 7.5), 37° C., 1 h) was over 5140 µg/mL, the “24 h Solubility” value (FaSSIF (pH 7.5), 37° C., 24 h) was over 5140 µg/mL and the “1 h Solubility” value (FaSSIF, 37° C., 1 h) was 218 µg/mL. The “24 h Solubility” value (FaSSIF, 37° C., 24 h) was 211 µg/mL, the “1 h Solubility” value (FeSSIF (pH 7.8), 37° C., 1 h) was over 5140 µg/mL and the “24 h Solubility” value (FeSSIF (pH 7.8), 37° C., 24 h) was over 5140 µg/mL. For the same compound, the “1 h Solubility” value (FeSSIF, 37° C., 1 h) was 23 µg/mL, the “24 h Solubility” value (FeSSIF, 37° C., 24 h) was 25 µg/mL and the “1 h Solubility” value (pH 1.2 medium, 37° C., 1 h) was 18 µg/mL. The “24 h Solubility” value (pH 1.2 medium, 37° C., 24 h) was 7 µg/mL, the “1 h Solubility” value (pH 4.5 medium, 37° C., 1 h) was 30 µg/mL and the “24 h Solubility” value (pH 4.5 medium, 37° C., 24 h) was 6 µg/mL. For the same compound, the “1 h Solubility” value (pH 6.8 medium, 37° C., 1 h) was 111 µg/mL, the “24 h Solubility” value (pH 6.8 medium, 37° C., 24 h) was 78 µg/mL and the “Mean concentration (plasma)” value [2, 9] was 24600 ng/mL. For the same compound, the “Mean concentration (plasma)” value [2, 10] was 34467 ng/mL, the “Mean concentration (plasma)” value [2, 11] was 27200 ng/mL and the “Mean concentration (plasma)” value [2, 12] was 17000 ng/mL. For the same compound, the “Mean concentration (plasma)” value [2, 13] was 10850 ng/mL, the “Mean concentration (plasma)” value [2, 14] was 687 ng/mL and the AUCExtr [2, 15] was 1.68%. It also gave an AUClast [2, 16] of 244.45 µg·h/mL, a Cmax [2, 16] of 34733 ng/mL and a t1/2 [2, 16] of 4.21 h. The tmax [2, 16] was 1.33 h, the AUCInf [2, 17] was 248.674 µg·h/mL and the “F (fraction absorbed, bioavailability)” value ([2]; single oral dose 20 mg/kg) was 51%. The “Hygroscopicity by DVS” value [4] was 6.05%, the “Weight loss by TGA” value ([3]; from 25° C. to 57° C.) was 2.02% from 25 °C to and the “Weight loss by TGA” value ([3]; from 57° C. to 140° C.) was 4.40% from 57 °C to. The “Weight loss by TGA” value ([3]; from r.t. to 120° C.) was 5.34% from r.t. to and the “Total weight loss by TGA” value [3] was 6.42% total weight.
With `C#CCOc1ccc(/C=C/C(=O)Nc2ccccc2C(=O)O)cc1OC.N` [Ammonium salt] the “Maximum plasma concentration (Cmax) compared to the other tested compounds” value ([2]; single oral dose 20 mg/kg) was “highest maximum plasma concentration”, the “Mean concentration (plasma)” value [2, 9] was 32700 ng/mL and the “Mean concentration (plasma)” value [2, 10] was 44033 ng/mL. The “Mean concentration (plasma)” value [2, 11] was 35033 ng/mL, the “Mean concentration (plasma)” value [2, 12] was 20833 ng/mL and the “Mean concentration (plasma)” value [2, 13] was 14400 ng/mL. The “Mean concentration (plasma)” value [2, 14] was 575 ng/mL, the AUCExtr [2, 15] was 0.932% and the AUClast [2, 16] was 313.832 µg·h/mL. For the same compound, the Cmax [2, 16] was 44033 ng/mL, the t1/2 [2, 16] was 3.62 h and the tmax [2, 16] was 1.00 h. For the same compound, the AUCInf [2, 17] was 317.034 µg·h/mL, the “F (fraction absorbed, bioavailability)” value ([2]; single oral dose 20 mg/kg) was 64% and the “Weight loss by TGA” value ([3]; from 0° C. to 100° C.) was 7.07% from 0 °C to. For the same compound, the “Weight loss by TGA” value ([3]; from 100° C. to 170° C.) was 4.48% from 100 °C to, the “Weight loss by TGA” value ([3]; from r.t. to 120° C.) was 8.94% from r.t. to and the “Total weight loss by TGA” value [3] was 11.55% total weight.
In the case of `C#CCOc1ccc(/C=C/C(=O)Nc2ccccc2C(=O)O)cc1OC.CC(C)(C)N` [tert-Butylamine (TBA) salt], the “Mean concentration (plasma)” value [2, 9] is reported as 18080 ng/mL, the “Mean concentration (plasma)” value [2, 10] is reported as 26967 ng/mL and the “Mean concentration (plasma)” value [2, 11] is reported as 29167 ng/mL. For the same compound, the “Mean concentration (plasma)” value [2, 12] was 17133 ng/mL, the “Mean concentration (plasma)” value [2, 13] was 15433 ng/mL and the “Mean concentration (plasma)” value [2, 14] was 918 ng/mL. It also gave an AUCExtr [2, 15] of 1.83%, an AUClast [2, 16] of 287.306 µg·h/mL and a Cmax [2, 16] of 32000 ng/mL. It also gave a t1/2 [2, 16] of 4.18 h, a tmax [2, 16] of 1.67 h and an AUCInf [2, 17] of 292.817 µg·h/mL. The “F (fraction absorbed, bioavailability)” value ([2]; single oral dose 20 mg/kg) was 59%, the “Hygroscopicity by DVS” value [4] was 1.07% and the “Hygroscopicity by DVS” value ([4]; listed as tert-butylamine (TBA)) was 1.07%. For the same compound, the “Hygroscopicity by DVS” value ([4]; listed as tert-butylamine salt) was “about 1.07%”, the “Weight loss by TGA” value ([3]; from 25° C. to 120° C.) was 0.94% from 25 °C to and the “Weight loss by TGA” value ([3]; from 120° C. to 190° C.) was 6.91% from 120 °C to. For the same compound, the “Weight loss by TGA” value ([3]; from r.t. to 120° C.) was 0.94% from r.t. to, the “Total weight loss by TGA” value [3] was 7.85% total weight and the “Weight loss (TGA)” value [3] was 0.94%. For the same compound, the “Weight loss (TGA)” value ([3]; listed as tert-butylamine salt) was “about 0.94%”.
With `C#CCOc1ccc(/C=C/C(=O)Nc2ccccc2C(=O)O)cc1OC.NC(CO)(CO)CO` [Tris salt] the “1 h Solubility” value (pH 1.2) was 1 µg/mL, the “24 h Solubility” value (pH 1.2) was 4 µg/mL and the “1 h Solubility” value (pH 4.5) was under 1 µg/mL. For the same compound, the “24 h Solubility” value (pH 4.5) was 2 µg/mL, the “1 h Solubility” value (pH 6.8) was 88 µg/mL and the “24 h Solubility” value (pH 6.8) was 67 µg/mL. For the same compound, the “1 h Solubility” value (pH 7.5) was over 5030 µg/mL, the “24 h Solubility” value (pH 7.5) was 4641 µg/mL and the “1 h Solubility” value (pH 7.8) was over 5100 µg/mL. The “24 h Solubility” value (pH 7.8) was 4212 µg/mL, the “Mean concentration (plasma)” value [2, 9] was 21300 ng/mL and the “Mean concentration (plasma)” value [2, 10] was 36833 ng/mL. For the same compound, the “Mean concentration (plasma)” value [2, 11] was 31067 ng/mL, the “Mean concentration (plasma)” value [2, 12] was 14467 ng/mL and the “Mean concentration (plasma)” value [2, 13] was 11317 ng/mL. For the same compound, the “Mean concentration (plasma)” value [2, 14] was 650 ng/mL, the AUCExtr [2, 15] was 1.49% and the AUClast [2, 16] was 246.642 µg·h/mL. For the same compound, the Cmax [2, 16] was 37367 ng/mL, the t1/2 [2, 16] was 4.02 h and the tmax [2, 16] was 1.33 h. For the same compound, the AUCInf [2, 17] was 250.596 µg·h/mL, the “F (fraction absorbed, bioavailability)” value ([2]; single oral dose 20 mg/kg) was 51% and the “Hygroscopicity by DVS” value [4] was 1.61%. The “Hygroscopicity by DVS” value ([4]; listed as tris(hydroxymethyl)aminomethane (Tris)) was 1.61%, the “Weight loss by TGA” value ([3]; from 0° C. to 120° C.) was 0.65% from 0 °C to and the “Weight loss by TGA” value ([3]; from 120° C. to 150° C.) was 0.20% from 120 °C to. The “Weight loss by TGA” value ([3]; from r.t. to 120° C.) was 0.65% from r.t. to, the “Total weight loss by TGA” value [3] was 0.85% total weight and the “Weight loss (TGA)” value [3] was 0.65%.
